Laboratory results published in ChEMBL document CHEMBL3853264 (Medchemcomm, 2016).
≈ marks a conversion by molar mass, not a printed value.

Legend:
[1] = target: T1, Solute carrier family 22 member 12 (Homo sapiens, UniProt Q96S37); assay: Inhibition of human C-terminal eGFP-tagged URAT1 long isoform expressed in CHO cells assessed as decrease in [14C]-uric acid uptake preincubated for 15 mins followed by [14C]-uric acid addition and incubated in dark for 3 hrs by scintillation counting method; type: cell-based
T1 sequence (Q96S37 whole entry): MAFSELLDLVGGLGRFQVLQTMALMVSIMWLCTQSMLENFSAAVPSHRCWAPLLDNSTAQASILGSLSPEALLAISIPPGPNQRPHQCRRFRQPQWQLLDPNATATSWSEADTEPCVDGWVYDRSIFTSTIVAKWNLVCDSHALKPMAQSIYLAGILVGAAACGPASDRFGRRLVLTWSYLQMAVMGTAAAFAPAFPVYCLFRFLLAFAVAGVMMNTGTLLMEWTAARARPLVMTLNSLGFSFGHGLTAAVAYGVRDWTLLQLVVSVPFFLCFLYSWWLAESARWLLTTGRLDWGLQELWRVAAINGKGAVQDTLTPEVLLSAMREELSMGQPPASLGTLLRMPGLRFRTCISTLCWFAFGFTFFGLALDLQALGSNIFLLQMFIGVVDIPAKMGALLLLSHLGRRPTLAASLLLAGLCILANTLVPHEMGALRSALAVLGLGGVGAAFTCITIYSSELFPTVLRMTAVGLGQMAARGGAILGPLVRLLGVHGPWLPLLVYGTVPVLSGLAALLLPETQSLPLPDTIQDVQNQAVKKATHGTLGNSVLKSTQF

[2] = Volume of distribution at steady state in rat at 0.5 mg/kg, iv and 1 mg/kg, po; type: ADME, organism-based; conditions: in vivo, read-out: Vdss
[3] = Drug metabolism in rat hepatocytes assessed as (2S,3S,4S,5R,6R)-6-(2-chloro-4-(2-cyano-4-(N-(5-fluoropyridin-2-yl)sulfamoyl)phenoxy)benzyloxy)-3,4,5-trihydroxytetrahydro-2H-pyran-2-carboxylic acid formation; type: ADME, cell-based, Hepatocyte
[4] = target: Cytochrome P450 2C9 (Homo sapiens, UniProt P11712); assay: Inhibition of CYP2C9 (unknown origin); type: ADME
[5] = Average plasma concentration in dog at 100 mg/kg, po administered as single dose measured on day 14; type: ADME, organism-based, Canis lupus familiaris; conditions: in vivo
[6] = Toxicity in po dosed dog measured assessed as drug tolerance measured over 14 days; type: organism-based, Canis lupus familiaris; conditions: in vivo, 336 h
[7] = target: Sodium channel protein type 5 subunit alpha (Homo sapiens, UniProt Q14524); assay: Inhibition of human NaV1.5 expressed in HEK293 cells by patch clamp method; type: cell-based
[8] = Intrinsic clearance in rat liver microsomes; type: ADME; conditions: read-out: CLH
[9] = Half life in rat at 0.5 mg/kg, iv and 1 mg/kg, po; type: ADME, organism-based; conditions: in vivo
[10] = target: BCRP (ABCG2) (Homo sapiens, UniProt Q9UNQ0); assay: Substrate activity at BCRP (unknown origin) assessed as efflux ratio of permeability; type: ADME; conditions: not told
[11] = Toxicity in dog up to 100 mg/kg/day, po measured over 14 days by clinical pathology test; type: organism-based, Canis lupus familiaris; conditions: in vivo, 336 h
[12] = target: Solute carrier organic anion transporter family member 2B1 (Homo sapiens, UniProt O94956); assay: Drug uptake assessed as human OATP2B1-mediated drug accumulation by cell-based assay relative to wild type protein; type: ADME
[13] = Oral bioavailability in rat at 1 mg/kg; type: ADME, organism-based; conditions: in vivo
[14] = Intrinsic clearance in human liver microsomes; type: ADME; conditions: read-out: CLH
[15] = tested on: Rattus norvegicus; assay: Toxicity in rat assessed as increase in blood pressure at 100 mg/kg/day, po measured over 14 days; type: organism-based; conditions: in vivo, 336 h
[16] = Permeability in RRCK cells; type: ADME, cell-based, Canis lupus familiaris, MDCKII-LE; conditions: dog, MDCK; read-out: permeability
[17] = tested on: Rattus norvegicus; assay: Toxicity in rat assessed as hematological changes up to 300 mg/kg/day, po measured over 14 days; type: organism-based; conditions: in vivo, 336 h
[18] = target: Solute carrier family 22 member 6 (Homo sapiens, UniProt Q4U2R8); assay: Inhibition of OAT1 (unknown origin)
[19] = Intrinsic clearance in dog hepatocytes assessed per 10^6 cells; type: ADME, cell-based, Canis lupus familiaris, Hepatocyte; conditions: read-out: CLH
[20] = Dissociation constant, pKa of the compound; type: physicochemical
[21] = Drug metabolism in human liver microsomes assessed as 2-chloro-4-(2-cyano-4-(N-(5-fluoropyridin-2-yl)sulfamoyl)phenoxy)benzoic acid formation; type: ADME
[22] = Toxicity in dog assessed as emesis at 100 mg/kg/day, po measured over 14 days by histologic test; type: organism-based, Canis lupus familiaris; conditions: in vivo, 336 h
[23] = Mutagenicity in […] by Ames test in presence of […] fraction; type: toxicity
[24] = Plasma clearance in rat at 0.5 mg/kg, iv and 1 mg/kg, po; type: ADME, organism-based
[25] = Solubility of the compound at pH 6.5; type: physicochemical; conditions: buffer
[26] = Unbound clearance in rat at 0.5 mg/kg, iv and 1 mg/kg, po; type: ADME, organism-based; conditions: in vivo
[27] = Octanol-water partition co-efficient, log D of the compound by shake flask method; type: physicochemical
[28] = Fraction unbound in human plasma; type: ADME, cell-free
[29] = Unbound Cmax in rat at 300 mg/kg, po administered as single dose measured on day 14; type: ADME, organism-based; conditions: in vivo
[30] = Fraction unbound in dog plasma; type: ADME, cell-free, Canis lupus familiaris
[31] = target: Solute carrier organic anion transporter family member 1B1 (Homo sapiens, UniProt Q9Y6L6); assay: Drug uptake assessed as human OATP1B1-mediated drug accumulation by cell-based assay relative to wild type protein; type: ADME
[32] = target: Cytochrome P450 2D6 (Homo sapiens, UniProt P10635); assay: Inhibition of CYP2D6 (unknown origin); type: ADME
[33] = tested on: Rattus norvegicus; assay: Toxicity in rat up to 300 mg/kg/day, po measured over 14 days by necropsy; type: organism-based; conditions: in vivo, 336 h
[34] = target: Solute carrier organic anion transporter family member 1B3 (Homo sapiens, UniProt Q9NPD5); assay: Drug uptake assessed as human OATP1B3-mediated drug accumulation by cell-based assay relative to wild type protein; type: ADME
[35] = tested on: Rattus norvegicus; assay: Toxicity in rat up to 300 mg/kg/day, po measured over 14 days by microscopic study; type: organism-based; conditions: in vivo, 336 h
[36] = Fraction unbound in rat plasma; type: ADME, cell-free
[37] = Average plasma concentration in rat at 30 mg/kg, po administered as single dose measured on day 14; type: ADME, organism-based; conditions: in vivo
[38] = target: Cytochrome P450 2C8 (Homo sapiens, UniProt P10632); assay: Inhibition of CYP2C8 (unknown origin); type: ADME
[39] = Unbound Cmax in dog at 100 mg/kg, po administered as single dose measured on day 14; type: ADME, organism-based, Canis lupus familiaris; conditions: in vivo
[40] = target: Cytochrome P450 1A2 (Homo sapiens, UniProt P05177); assay: Inhibition of CYP1A2 (unknown origin); type: ADME
[41] = target: Sodium channel protein type 9 subunit alpha (Homo sapiens, UniProt Q15858); assay: Inhibition of NaV1.7 (unknown origin) by electrophysiology assay
[42] = target: Cytochrome P450 2C19 (Homo sapiens, UniProt P33261); assay: Inhibition of CYP2C19 (unknown origin); type: ADME
[43] = Toxicity in dog assessed as decrease in hepatic glycogen content at 100 mg/kg/day, po measured over 14 days; type: organism-based, Canis lupus familiaris; conditions: in vivo, 336 h
[44] = Drug excretion in bile of bile duct cannulated rat; type: ADME; conditions: read-out: Drug excretion
[45] = Cytotoxicity against THLE cells; type: toxicity, cell-based; conditions: human
[46] = Mutagenicity in […] by Ames test in absence of […] fraction; type: toxicity
[47] = Average plasma concentration in rat at 300 mg/kg, po administered as single dose measured on day 14; type: ADME, organism-based; conditions: in vivo
[48] = Drug metabolism in human hepatocytes assessed as 2-chloro-4-(2-cyano-4-(N-(5-fluoropyridin-2-yl)sulfamoyl)phenoxy)benzoic acid formation; type: ADME, cell-based, Hepatocyte
[49] = target: Organic anion transporter 3 (Homo sapiens, UniProt Q8TCC7); assay: Inhibition of OAT3 (unknown origin)
[50] = tested on: Rattus norvegicus; assay: Toxicity in rat assessed as change in food consumption up to 300 mg/kg/day, po measured over 14 days; type: organism-based; conditions: in vivo, 336 h
[51] = tested on: Rattus norvegicus; assay: Toxicity in rat up to 300 mg/kg/day, po measured over 14 days by clinical chemistry study; type: organism-based; conditions: in vivo, 336 h
[52] = Toxicity in dog up to 100 mg/kg/day, po measured over 14 days by histologic test; type: organism-based, Canis lupus familiaris; conditions: in vivo, 336 h
[53] = tested on: Rattus norvegicus; assay: Cardiovascular toxicity in rat up to 30 mg/kg/day, po measured over 14 days; type: organism-based; conditions: in vivo, 336 h
[54] = Toxicity in dog assessed as salivation at 100 mg/kg/day, po measured over 14 days by histologic test; type: organism-based, Canis lupus familiaris; conditions: in vivo, 336 h
[55] = Toxicity in dog assessed as decrease in serum glucose at 100 mg/kg/day, po measured over 14 days; type: organism-based, Canis lupus familiaris; conditions: in vivo, 336 h
[56] = tested on: Rattus norvegicus; assay: Toxicity in rat assessed as change in body weight up to 300 mg/kg/day, po measured over 14 days; type: organism-based; conditions: in vivo, 336 h
[57] = Intrinsic clearance in rat hepatocytes assessed per 10^6 cells; type: ADME, cell-based, Hepatocyte; conditions: read-out: CLH
[58] = target: Solute carrier family 22 member 11 (Homo sapiens, UniProt Q9NSA0); assay: Inhibition of OAT4 (unknown origin)
[59] = tested on: Rattus norvegicus; assay: Toxicity in rat assessed as change in organ weight up to 300 mg/kg/day, po measured over 14 days; type: organism-based; conditions: in vivo, 336 h
[60] = Intrinsic clearance in human hepatocytes assessed per 10^6 cells; type: ADME, cell-based, Hepatocyte; conditions: read-out: CLH
[61] = Unbound Cmax in rat at 30 mg/kg, po administered as single dose measured on day 14; type: ADME, organism-based; conditions: in vivo
[62] = Intrinsic clearance in dog liver microsomes; type: ADME, Canis lupus familiaris; conditions: read-out: CLH
[63] = tested on: Rattus norvegicus; assay: Toxicity in po dosed rat assessed as drug tolerance measured over 14 days; type: organism-based; conditions: in vivo, 336 h
[64] = target: Cytochrome P450 3A4 (Homo sapiens, UniProt P08684); assay: Inhibition of CYP3A4 (unknown origin); type: ADME
[65] = target: Voltage-gated inwardly rectifying potassium channel KCNH2 (Homo sapiens, UniProt Q12809); assay: Inhibition of human ERG by patch clamp method
[66] = tested on: P-gp; assay: Substrate activity at p-gp (unknown origin) assessed as efflux ratio of permeability; type: ADME; conditions: human, not told
[67] = Inhibition of GABAA receptor (unknown origin); design: species or system Homo sapiens

Chain of Voltage-gated inwardly rectifying potassium channel KCNH2 (Q12809 whole entry): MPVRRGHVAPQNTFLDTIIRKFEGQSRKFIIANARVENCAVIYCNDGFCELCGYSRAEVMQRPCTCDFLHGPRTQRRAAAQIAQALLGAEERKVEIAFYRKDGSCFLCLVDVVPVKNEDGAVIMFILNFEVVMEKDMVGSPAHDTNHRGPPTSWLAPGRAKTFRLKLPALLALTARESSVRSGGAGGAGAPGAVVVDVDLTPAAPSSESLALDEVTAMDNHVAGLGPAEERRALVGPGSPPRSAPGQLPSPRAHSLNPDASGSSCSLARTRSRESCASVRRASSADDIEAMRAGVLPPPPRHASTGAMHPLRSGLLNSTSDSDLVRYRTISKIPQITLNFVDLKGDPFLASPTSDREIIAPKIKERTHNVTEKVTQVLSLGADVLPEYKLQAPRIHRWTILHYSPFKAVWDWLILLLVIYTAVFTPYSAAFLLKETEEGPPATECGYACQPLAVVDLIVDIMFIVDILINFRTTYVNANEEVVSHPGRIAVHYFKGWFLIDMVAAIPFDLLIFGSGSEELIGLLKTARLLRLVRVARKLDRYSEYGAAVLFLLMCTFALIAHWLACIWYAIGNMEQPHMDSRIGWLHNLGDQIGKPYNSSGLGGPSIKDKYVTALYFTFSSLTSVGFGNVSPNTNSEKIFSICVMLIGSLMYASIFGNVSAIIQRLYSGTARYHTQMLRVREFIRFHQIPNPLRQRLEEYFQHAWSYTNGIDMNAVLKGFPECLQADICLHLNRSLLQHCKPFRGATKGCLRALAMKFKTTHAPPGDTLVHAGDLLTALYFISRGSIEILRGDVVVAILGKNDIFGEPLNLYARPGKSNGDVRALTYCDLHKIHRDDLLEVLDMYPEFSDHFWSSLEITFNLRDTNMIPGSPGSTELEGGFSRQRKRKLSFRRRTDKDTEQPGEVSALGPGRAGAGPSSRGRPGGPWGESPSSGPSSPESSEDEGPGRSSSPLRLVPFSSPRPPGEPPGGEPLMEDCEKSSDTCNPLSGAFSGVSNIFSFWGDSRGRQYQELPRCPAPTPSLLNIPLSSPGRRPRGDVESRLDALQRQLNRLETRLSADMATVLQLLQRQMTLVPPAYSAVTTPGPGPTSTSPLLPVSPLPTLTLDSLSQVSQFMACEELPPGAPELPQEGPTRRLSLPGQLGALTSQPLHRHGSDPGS
Chain of Cytochrome P450 3A4 (P08684 whole entry): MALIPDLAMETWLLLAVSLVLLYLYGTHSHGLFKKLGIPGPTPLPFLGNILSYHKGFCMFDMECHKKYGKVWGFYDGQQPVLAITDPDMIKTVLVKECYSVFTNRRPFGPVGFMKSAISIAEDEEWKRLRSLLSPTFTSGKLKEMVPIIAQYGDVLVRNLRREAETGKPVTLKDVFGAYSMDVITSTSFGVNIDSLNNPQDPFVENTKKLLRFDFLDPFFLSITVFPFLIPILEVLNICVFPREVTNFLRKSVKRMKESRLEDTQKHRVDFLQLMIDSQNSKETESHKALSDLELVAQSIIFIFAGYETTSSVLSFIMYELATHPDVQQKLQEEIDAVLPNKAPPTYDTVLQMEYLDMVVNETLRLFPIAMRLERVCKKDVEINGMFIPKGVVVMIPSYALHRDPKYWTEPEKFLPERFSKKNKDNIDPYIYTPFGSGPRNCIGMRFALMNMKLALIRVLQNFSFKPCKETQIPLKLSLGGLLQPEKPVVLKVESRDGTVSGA
Chain of Solute carrier organic anion transporter family member 1B3 (Q9NPD5 whole entry): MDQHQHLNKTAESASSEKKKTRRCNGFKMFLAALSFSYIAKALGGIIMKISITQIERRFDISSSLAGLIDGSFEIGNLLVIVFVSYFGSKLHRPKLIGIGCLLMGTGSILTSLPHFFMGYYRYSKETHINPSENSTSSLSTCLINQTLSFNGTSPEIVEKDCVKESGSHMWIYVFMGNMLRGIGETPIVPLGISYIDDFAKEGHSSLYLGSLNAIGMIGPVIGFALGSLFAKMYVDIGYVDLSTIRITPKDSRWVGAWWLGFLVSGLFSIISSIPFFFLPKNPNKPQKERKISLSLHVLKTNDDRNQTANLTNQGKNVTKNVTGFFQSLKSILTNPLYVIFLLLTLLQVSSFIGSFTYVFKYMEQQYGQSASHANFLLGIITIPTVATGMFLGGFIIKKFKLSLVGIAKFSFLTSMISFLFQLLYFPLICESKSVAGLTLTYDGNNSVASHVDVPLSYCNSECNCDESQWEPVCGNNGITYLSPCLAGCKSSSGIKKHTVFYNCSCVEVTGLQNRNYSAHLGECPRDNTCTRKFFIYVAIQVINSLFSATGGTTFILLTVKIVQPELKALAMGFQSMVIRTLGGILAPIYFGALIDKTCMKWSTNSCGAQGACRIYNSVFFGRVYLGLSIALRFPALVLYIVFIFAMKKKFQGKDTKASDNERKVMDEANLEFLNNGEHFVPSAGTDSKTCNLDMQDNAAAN
Chain of Sodium channel protein type 5 subunit alpha (Q14524 whole entry): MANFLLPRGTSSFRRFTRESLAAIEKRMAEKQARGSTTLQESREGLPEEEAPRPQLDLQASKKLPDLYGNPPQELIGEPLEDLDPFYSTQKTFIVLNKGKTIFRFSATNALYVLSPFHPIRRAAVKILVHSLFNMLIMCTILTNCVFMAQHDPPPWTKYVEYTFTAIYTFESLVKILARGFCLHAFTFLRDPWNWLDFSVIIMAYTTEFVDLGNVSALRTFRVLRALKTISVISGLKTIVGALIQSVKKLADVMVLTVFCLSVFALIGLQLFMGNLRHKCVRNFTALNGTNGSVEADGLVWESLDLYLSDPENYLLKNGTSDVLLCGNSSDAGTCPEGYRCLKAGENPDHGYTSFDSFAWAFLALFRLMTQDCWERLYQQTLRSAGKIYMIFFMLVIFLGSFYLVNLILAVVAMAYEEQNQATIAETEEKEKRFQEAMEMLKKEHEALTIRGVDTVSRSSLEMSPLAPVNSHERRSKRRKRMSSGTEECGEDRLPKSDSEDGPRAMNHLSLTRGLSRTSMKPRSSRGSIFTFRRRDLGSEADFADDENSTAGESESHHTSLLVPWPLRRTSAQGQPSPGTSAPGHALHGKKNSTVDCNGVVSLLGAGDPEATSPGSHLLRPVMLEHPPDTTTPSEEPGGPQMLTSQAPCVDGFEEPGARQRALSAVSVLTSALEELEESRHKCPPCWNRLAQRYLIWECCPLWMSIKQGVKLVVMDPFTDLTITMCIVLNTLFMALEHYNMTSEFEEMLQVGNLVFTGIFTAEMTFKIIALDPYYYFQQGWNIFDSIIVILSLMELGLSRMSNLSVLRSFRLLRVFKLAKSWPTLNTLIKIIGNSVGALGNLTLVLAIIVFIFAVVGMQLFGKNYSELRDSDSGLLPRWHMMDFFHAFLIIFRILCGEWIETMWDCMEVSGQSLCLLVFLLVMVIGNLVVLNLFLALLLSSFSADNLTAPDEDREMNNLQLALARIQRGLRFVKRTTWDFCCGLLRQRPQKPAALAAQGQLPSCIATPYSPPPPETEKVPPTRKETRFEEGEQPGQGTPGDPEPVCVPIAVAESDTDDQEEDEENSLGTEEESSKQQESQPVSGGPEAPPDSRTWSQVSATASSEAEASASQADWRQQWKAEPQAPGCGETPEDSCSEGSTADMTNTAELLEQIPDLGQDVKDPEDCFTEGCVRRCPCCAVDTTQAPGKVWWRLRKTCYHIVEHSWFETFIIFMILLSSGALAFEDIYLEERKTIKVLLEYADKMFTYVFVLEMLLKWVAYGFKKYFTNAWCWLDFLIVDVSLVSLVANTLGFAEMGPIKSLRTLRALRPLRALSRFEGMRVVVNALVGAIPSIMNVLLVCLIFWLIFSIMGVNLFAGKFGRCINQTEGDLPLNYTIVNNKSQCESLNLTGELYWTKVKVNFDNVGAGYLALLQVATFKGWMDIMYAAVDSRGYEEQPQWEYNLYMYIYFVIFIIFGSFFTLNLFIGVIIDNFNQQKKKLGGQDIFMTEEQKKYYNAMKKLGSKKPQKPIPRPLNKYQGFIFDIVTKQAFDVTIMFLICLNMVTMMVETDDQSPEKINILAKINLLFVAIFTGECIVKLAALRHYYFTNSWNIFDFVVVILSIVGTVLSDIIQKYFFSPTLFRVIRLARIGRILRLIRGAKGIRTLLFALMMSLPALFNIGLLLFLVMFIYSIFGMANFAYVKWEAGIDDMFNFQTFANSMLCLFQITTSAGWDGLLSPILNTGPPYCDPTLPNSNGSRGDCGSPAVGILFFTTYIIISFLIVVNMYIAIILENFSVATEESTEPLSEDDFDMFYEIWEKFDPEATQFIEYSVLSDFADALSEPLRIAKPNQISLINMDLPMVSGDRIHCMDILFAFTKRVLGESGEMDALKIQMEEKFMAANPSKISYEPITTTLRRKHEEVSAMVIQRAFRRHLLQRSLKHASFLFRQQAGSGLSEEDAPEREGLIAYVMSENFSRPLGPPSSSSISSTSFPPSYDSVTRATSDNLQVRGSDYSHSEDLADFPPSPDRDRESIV
Chain of Solute carrier organic anion transporter family member 1B1 (Q9Y6L6 whole entry): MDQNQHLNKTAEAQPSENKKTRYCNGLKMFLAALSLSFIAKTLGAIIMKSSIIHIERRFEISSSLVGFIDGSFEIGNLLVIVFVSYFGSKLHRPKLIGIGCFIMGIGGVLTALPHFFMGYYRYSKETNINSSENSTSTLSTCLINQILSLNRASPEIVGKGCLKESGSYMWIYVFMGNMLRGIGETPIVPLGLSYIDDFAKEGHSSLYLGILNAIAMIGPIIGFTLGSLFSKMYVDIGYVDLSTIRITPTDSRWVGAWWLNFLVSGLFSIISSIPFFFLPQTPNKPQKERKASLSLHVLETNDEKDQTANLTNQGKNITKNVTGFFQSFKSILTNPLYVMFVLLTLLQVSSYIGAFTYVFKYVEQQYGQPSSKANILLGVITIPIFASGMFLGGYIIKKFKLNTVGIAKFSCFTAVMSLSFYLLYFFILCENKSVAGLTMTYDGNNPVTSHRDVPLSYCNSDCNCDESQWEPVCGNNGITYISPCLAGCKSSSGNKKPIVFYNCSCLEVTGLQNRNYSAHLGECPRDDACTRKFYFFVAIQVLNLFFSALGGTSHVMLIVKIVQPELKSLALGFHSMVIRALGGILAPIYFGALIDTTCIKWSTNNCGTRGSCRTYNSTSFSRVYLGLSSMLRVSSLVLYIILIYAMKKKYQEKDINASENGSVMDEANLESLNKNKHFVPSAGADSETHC

N#Cc1ccc(Oc2ccc(S(=O)(=O)Nc3cccnc3)cc2C#N)cc1Cl
IC50 [1]: 0.395 µM

N#Cc1cc(S(=O)(=O)Nc2ccc(F)cn2)ccc1Oc1ccc(CO)c(Cl)c1
Vd [2]: 0.27 L/kg | Drug metabolism [3]: Metabolite_Detected | IC50 [4]: 2 µM | Cave [5]: 1019 nM | Activity [6]: <= 100 mg/kg/day | IC50 [7]: > 30 µM | microsomal CLint [8]: < 14 µL/min/mg | half-life [9]: 3.9 h | efflux ratio [10]: 34 | Activity [11]: Non-Toxic | fold change (FC) [12]: 1.48 | bioavailability [13]: 50% | microsomal CLint [14]: < 10 µL/min/mg | Activity [15]: Non-Toxic | Papp [16]: 12 ×10⁻⁶ cm/s | Activity [17]: Non-Toxic | IC50 [18]: 14.3 µM | hepatocyte CLint [19]: < 6 µL/min/1e6 cells | pKa [20]: 5.7 | Drug metabolism [21]: Metabolite_Detected | Activity [22]: Toxic | Activity [23]: Non-Toxic | clearance [24]: 1.3 mL/min/kg | solubility [25]: 15.3 µM (≈ 6.64 µg/mL) | CL free [26]: 93 mL/min/kg | logD [27]: 2.1 | fraction unbound [28]: 0.0083 | fCmax [29]: 537 nM | fraction unbound [30]: 0.014 | fold change (FC) [31]: 1.181 | IC50 [32]: > 30 µM | Activity [33]: Non-Toxic | fold change (FC) [34]: 1.124 | Activity [35]: Non-Toxic | fraction unbound [36]: 0.0043 | Cave [37]: 43 nM | IC50 [38]: 9.9 µM | fCmax [39]: 3.905 µM | IC50 [40]: > 30 µM | IC50 [41]: > 30 µM | IC50 [42]: 17.5 µM | Activity [43]: Toxic | dose excreted [44]: 10% | Activity [45]: 105 µM | Activity [46]: Non-Toxic | Cave [47]: 240 nM | Drug metabolism [48]: Metabolite_Detected | IC50 [49]: 0.5 µM | Activity [50]: Non-Toxic | Activity [51]: Non-Toxic | Activity [52]: Non-Toxic | Activity [53]: Non-Toxic | Activity [54]: Toxic | Activity [55]: Toxic | Activity [56]: Non-Toxic | hepatocyte CLint [57]: 82 µL/min/1e6 cells | IC50 [58]: 15 µM | Activity [59]: Non-Toxic | hepatocyte CLint [60]: 23 µL/min/1e6 cells | fCmax [61]: 98 nM | microsomal CLint [62]: < 18 µL/min/mg | Activity [63]: <= 300 mg/kg/day | IC50 [64]: > 30 µM | IC50 [65]: > 100 µM | efflux ratio [66]: 1.9 | Ki [67]: > 10 µM
